The structures appear in SMILES notation.

A short description of this series: In vitro cytotoxicity with L-6 cells (Alamar Blue). The following applies: L-6 cells (rat skeletal myoblasts), 70 h + 2 h Alamar Blue; read-out: Cytotoxicity L6 IC50. Type of series: cell-based. The method, then:
Assays were performed in 96-well microtiter plates, each well containing 100 µl of RPMI 1640 medium supplemented with 1% L-glutamine (200mM) and 10% fetal bovine serum, and 4000 L-6 cells (a primary cell line derived from rat skeletal myoblasts). Serial drug dilutions of eleven 3-fold dilution steps covering a range from 100 to 0.002 µg/ml were prepared. After 70hours of incubation the plates were inspected under an inverted microscope to assure growth of the controls and sterile conditions. 10µl of Alamar Blue was then added to each well and the plates incubated for another 2 hours. Later they were read with a Spectramax Gemini XS microplate fluorometer (Molecular Devices Cooperation, Sunnyvale, CA, USA) using an excitation wave length of 536 nm and an emission wave length of 588 nm. The IC50 values were calculated by linear regression from the sigmoidal dose inhibition curves using SoftmaxPro software (Molecular Devices Cooperation, Sunnyvale, CA, USA). Podophyllotoxin (Sigma P4405) as control.
With `N=C(NO)c1ccc(C(=O)NO)cc1` [Compound 1c], the CC50 at 72 h came to 56.1 µg/mL. Consider `N=C(NO)c1ccc(NC(=O)NOCc2ccccc2)cc1` [Compound 2b], for which the CC50 at 72 h came out at 43 µg/mL. The same measure, in the same setting: to `N=C(NO)c1ccc(NC(=O)NO)cc1` [Compound 2c] belongs greater than 100 µg/mL. Turning to `N=C(NO)c1ccc(NC(=S)NOCc2ccccc2)cc1` [Compound 3c], the CC50 at 72 h turned out to be 57.6 µg/mL. In the case of `O=C(NO)Nc1ccc(Cl)c(Cl)c1` [Compound 4b], the CC50 at 72 h was greater than 100 µg/mL. Take `O=C(NO)NC1CCCCC1` [Compound 7b]: the CC50 at 72 h came out at 93 µg/mL. As for `Nc1ccc(C(=O)NO)cc1` [Compound 9b], the CC50 at 72 h worked out at 43.4 µg/mL. As to `CCCCONC(=O)c1ccc(NC(=N)N)cc1` [Compound 9d], the CC50 at 72 h was greater than 100 µg/mL. Turning to `CC(=O)N(O)c1ccc(C(=N)NO)cc1` [Compound 10c], the CC50 at 72 h is 52.2 µg/mL. Turning to `N=C(NO)c1ccc(S(=O)(=O)NO)cc1` [Compound 12b], the CC50 at 72 h was greater than 100 µg/mL. Consider `NC(=O)c1ccc(S(=O)(=O)NO)cc1` [Compound 12c], for which the CC50 at 72 h was greater than 100 µg/mL. Regarding `N=C(N)c1ccc(S(=O)(=O)NO)cc1` [Compound 12d], the CC50 at 72 h is greater than 100 µg/mL. As to `N=C(N)c1ccc(N)cc1` [Compound 13c], the CC50 at 72 h amounted to 42.9 µg/mL. For `CC(C)(C)C(=O)N(O)c1ccc(C#N)cc1` [Compound 15a], the CC50 at 72 h worked out at 33.5 µg/mL.

In the case of `Cc1ccc(S(=O)(=O)NC(C#N)C#N)cc1` [Compound 16a], the CC50 at 72 h was greater than 100 µg/mL. As for `N#Cc1nc(-c2ccco2)c[n+]([O-])c1N` [Compound 16b], the CC50 at 72 h was 61.1 µg/mL. For the compound `Nc1nc2ncc(C(=O)O)nc2c(=O)[nH]1` [Compound P6CAH], the CC50 at 72 h is greater than 100 µg/mL. In the case of `COc1cc([C@@H]2c3cc4c(cc3[C@H](O)[C@H]3COC(=O)[C@H]23)OCO4)cc(OC)c1OC` [Podophyllotoxin, reference compound], the IC50 at 72 h came to 0.006 µg/mL.
